system: immunoglobulin light chain protein WIL-FL T46L; test: Differential Scanning Fluorimetry (thermal shift) assay; assay type: binding; settings: recombinant amyloidogenic full length light chain WIL-FL T46L; protein and compound incubated at RT for 30 min before dye
Protocol: Differential Scanning Fluorimetry Assay
The stabilization effects the compounds have on the immunoglobulin light chain protein was quantitively measured using a thermal shift assay. Recombinant amyloidogenic full length light chain protein WIL-FL T46L was produced in E. coli, purified, and used in the assay. The Thermal Shift Protein Stability Kit from Biotium was used and the assay was done in 96-well Plates following the manufacturer's instructions. The protein and compounds were incubated at RT for 30 min before adding the dye and subjected to the thermal shift assay. The thermal stability (Tm) of each sample was then determined using standard curve fitting methods and compared to vehicle. Data are expressed as temperature shift: [Tm]compound−[Tm]vehicle.
The compounds provided herein induce shifts in the ranges below: • 0-0.5° C.═* • >0.5-1° C.═** • >1-1.5° C.═*** • >1.5-2.5° C.═**** • >2.5° C.═*****

Row | SMILES | DSF temperature shift: [Tm]compound−[Tm]vehicle
1 | Cc1cc(N2CC[C@@](C)(c3ccccc3)C2)cc(=O)n1CCN1C(=O)NC2(CCN(c3nccn4cncc34)CC2)C1=O [Compound 31] | *** (>1-1.5° C.═***)
2 | Cc1cc(N2CCC(C)(c3ccccc3)C2)cc(=O)n1CCN1CC2(CCN(c3ncccn3)C2)NC1=O (stereo not shown) [Compound 11, 3-(2-(6-methyl-4-(3-methyl-3-phenylpyrrolidin-1-yl)-2-oxopyridin-1(2H)-yl)ethyl)-7-(pyrimidin-2-yl)-1,3,7-triazaspiro[4.4]nonan-2-one] | *** (>1-1.5° C.═***)
3 | Cc1cc(N2CCC(C)(c3ccccc3)C2)cc(=O)n1CCN1C(=O)NC2(CCN(c3ncccn3)CC2)C1=O (stereo not shown) [Compound 30] | **** (>1.5-2.5° C.═****)
4 | Cc1cc(N2CCC(C)(c3ccccc3)C2)cc(=O)n1CCCN1C(=O)NC2(CCN(c3ncccn3)CC2)C1=O (stereo not shown) [Compound 28, 3-(3-(6-methyl-4-(3-methyl-3-phenylpyrrolidin-1-yl)-2-oxopyridin-1(2H)-yl)propyl)-8-(pyrimidin-2-yl)-1,3,8-triazaspiro[4.5]decane-2,4-dione] | **** (>1.5-2.5° C.═****)
5 | Cc1cc(N2CC[C@](C)(c3ccccc3)C2)cc(=O)n1CCN1CC2(CCN(c3nccn4ccnc34)CC2)NC1=O [Compound 12] | *** (>1-1.5° C.═***)
6 | Cc1cc(O[C@H](C)c2ccccc2)cc(=O)n1CCN1C(=O)NC2(CCN(c3nccn4ccnc34)CC2)C1=O [Compound 32, (R)-8-(imidazo[1,2-a]pyrazin-8-yl)-3-(2-(6-methyl-2-oxo-4-(1-phenylethoxy)pyridin-1(2H)-yl)ethyl)-1,3,8-triazaspiro[4.5]decane-2,4-dione] | ** (>0.5-1° C.═**)
7 | Cc1cc(N2CCC(C)(c3ccccc3)C2)cc(=O)n1CCN1C(=O)NC2(CCN(c3ncccn3)C2)C1=O (stereo not shown) [Compound 33] | *** (>1-1.5° C.═***)
8 | CCOC(=O)c1ccc(N2CCC3(CC2)CN(CCn2c(C)cc(N4CC[C@](CC)(c5ccccc5)C4)cc2=O)C(=O)N3)cn1 [Compound 14] | ***** (>2.5° C.═*****)
9 | Cc1cc(N2CC[C@@](C)(c3ccccc3)C2)cc(=O)n1CCCN1CC2(CCN(c3nccn4ccnc34)CC2)NC1=O [Compound 10] | **** (>1.5-2.5° C.═****)
10 | CC[C@]1(c2ccccc2)CCN(c2cc(C)n(CCN3CC4(CCN(c5ccc(C(=O)OC)nn5)CC4)NC3=O)c(=O)c2)C1 [Compound 18] | ***** (>2.5° C.═*****)
11 | Cc1cc(N2CC[C@@](C)(c3ccccc3)C2)cc(=O)n1CCN1CC2(CCN(c3ncnc4[nH]ncc34)CC2)NC1=O [Compound 9] | **** (>1.5-2.5° C.═****)
12 | Cc1cc(N2CC[C@@](C)(c3ccccc3)C2)cc(=O)n1CCCN1CC2(CCN(c3nccn4ccnc34)CC2)NC1=O [Compound 13] | ** (>0.5-1° C.═**)
13 | Cc1nc(N2CC[C@](C)(c3ccccc3)C2)cc(=O)n1CCN1CC2(CCN(c3nccn4ccnc34)CC2)NC1=O [Compound 24] | *** (>1-1.5° C.═***)
14 | Cc1cc(N2CCC(C)(c3ccccc3)C2)cc(=O)n1CCCN1C(=O)NC2(CCN(c3nccn4ccnc34)CC2)C1=O (stereo not shown) [Compound 29] | **** (>1.5-2.5° C.═****)
15 | CC[C@@]1(c2ccccc2)CCN(c2cc(C)n(CCN3CC4(CCN(c5cn6ccnc6cn5)CC4)NC3=O)c(=O)c2)C1 [Compound 15] | **** (>1.5-2.5° C.═****)
16 | CC[C@@]1(c2ccccc2)CCN(c2cc(C)n(CCN3CC4(CCN(c5nccn6cnnc56)CC4)NC3=O)c(=O)c2)C1 [Compound 1, (S)-8-([1,2,4]triazolo[4,3-a]pyrazin-8-yl)-3-(2-(4-(3-ethyl-3-phenylpyrrolidin-1-yl)-6-methyl-2-oxopyridin-1(2H)-yl)ethyl)-1,3,8-triazaspiro[4.5]decan-2-one] | ***** (>2.5° C.═*****)
17 | CC[C@@]1(c2ccccc2)CCN(c2cc(C)n(CCN3CC4(CCN(c5ccc6nncn6c5)CC4)NC3=O)c(=O)c2)C1 [Compound 16] | **** (>1.5-2.5° C.═****)
18 | Cc1cc(N2CCC(C)(c3ccccc3)C2=O)cc(=O)n1CCN1C(=O)NC2(CCN(c3ncccn3)C2)C1=O (stereo not shown) [Compound 34, 3-(2-(6-methyl-4-(3-methyl-2-oxo-3-phenylpyrrolidin-1-yl)-2-oxopyridin-1(2H)-yl)ethyl)-7-(pyrimidin-2-yl)-1,3,7-triazaspiro[4.4]nonane-2,4-dione] | * (0-0.5° C.═*)
19 | CC[C@]1(c2ccccc2)CCN(c2cc(C)n(CCN3CC4(CCN(c5cccc(C(=O)O)n5)CC4)NC3=O)c(=O)c2)C1 [Compound 20] | **** (>1.5-2.5° C.═****)
20 | CC[C@]1(c2ccccc2)CCN(c2cc(C)n(CCN3CC4(CCN(c5nccn6cnnc56)CC4)NC3=O)c(=O)c2)C1 [Compound 22] | *** (>1-1.5° C.═***)
21 | Cc1cc(N2CC[C@@](C)(c3ccccc3)C2)cc(=O)n1CCCN1C(=O)NC2(CCN(c3nccn4ccnc34)CC2)C1=O [Compound 27] | **** (>1.5-2.5° C.═****)
22 | Cc1cc(N2CC[C@](C)(c3ccccc3)C2)cc(=O)n1CCCN1C(=O)NC2(CCN(c3nccn4ccnc34)CC2)C1=O [Compound 35] | *** (>1-1.5° C.═***)
23 | CC[C@]1(c2ccccc2)CCN(c2cc(C)n(CCN3CC4(CCN(c5ccc(C(=O)O)nn5)CC4)NC3=O)c(=O)c2)C1 [Compound 17] | ***** (>2.5° C.═*****)
24 | CC[C@]1(c2ccccc2)CCN(c2cc(C)n(CCN3CC4(CCN(c5ccc(C(=O)O)nc5)CC4)NC3=O)c(=O)c2)C1 [Compound 19] | ** (>0.5-1° C.═**)
25 | CC[C@]1(c2ccccc2)CCN(c2cc(C)n(CCN3CC4(CCN(c5cccc(C(=O)OC)n5)CC4)NC3=O)c(=O)c2)C1 [Compound 21] | **** (>1.5-2.5° C.═****)

Source: US20240174672A1, “Spirocycle Containing Pyridone Compounds” (Protego Biopharma, Inc., priority 2022, published 2024)
